In patent US6984659B2, “2-pyrrolidinone derivatives substituted at position 4 for reducing the extracellular glutamate level” (priority 1997, dated 2006):
Entries after “also recorded” stand apart in the source; their conditions may differ.

Assays:
[1] = system: potassium-evoked release of [^3H]-noradrenaline; details: rat neocortex slices; Freiman et al. 2001, FIG. 1.0; cited from earlier work
[2] = system: retinal gangliocytes (neurons in the ganglion cell layer); format: in vivo
Experimental: The following results were found:
10 rats were treated with 0.9% NaCl i.p. at the start of a unilateral one-hour intraocular pressure increase. After 6 hours, the treatment was again carried out with 0.9% NaCl i.p. After 14 days, the rats were sacrificed, and the retinal gangliocytes were investigated. Compared with the respective control eye, only 17.4% (±4%) of the retinal gangliocytes had survived.
In the test group, likewise of 10 rats, 50 mg/kg 8-azaspiro[5,4]decan-9-one was administered i.p. at the start of a unilateral one-hour intraocular pressure increase. The compound was administered again in a dose of 50 mg/kg 6 hours after the intraocular pressure increase. After 14 days, the rats were sacrificed, and the retinal gangliocytes were investigated. It emerged that, compared with the respective control eye, 35% (±7%) of the retinal gangliocytes survived.
The method in brief: Retinal ischemia in the left eye was induced by elevating the intraocular pressure above systolic blood pressure for one hour. Retinal ischemia was confirmed by whitening of the fundus. In the first experiment 10 rats received 50 mg/kg GBP intraperitoneally immediately prior to ischemia and 50 mg/kg 6 hours after reperfusion, 10 rats received 50 mg/kg GBP-L i.p. immediately prior to ischemia and 50 mg/kg 6 hours after reperfusion, and 10 rats received vehicle alone. Ischemic damage was histologically quantified 14 days after ischemia: Both eyes were enucleated and immersed in 4% buffered formaldehyde for 24 hours. Retinal wholemounts were made and stained with cresyl violet, (0.1%, pH 4.5 for 30 min). Ischemic damage was quantified by counting the number of neurons in the ganglion cell layer in a masked fashion. […] This control eye was not subjected to ischemia.
Statistically, the ganglion cell numbers were evaluated as follows: In contrast to the usual ANOVA where the ratio of the mean squares between the treatment groups and the error mean square is used in the F-statistic, the nested design applied here requested another approach. Apart from the factor medication, there were three other sources of variation in our example, (1) the rat, (2) the eye, and (3) the replications of cell counting within each eye. To test for the medication effect the mean square for rat within medication has to be used as denominator. The variability of the eye is then contained in both the numerator (with all contributions to the variance) and the denominator (with the contributions to the variance except that of the factor medication). Thus, the variability of the eye is eliminated in the end and the variance of the factor medication is assessed appropriately in the F-test. The used model was: cell counts=med rat (med) eye(med*rat).
In order to evaluate the therapeutic window of GBP-L as an antiischemic drug (Pulsinelli et al. 1997) its time-effect relationship was tested at 75 mg/kg given twice prior to or after the end of ischemia with an interval of 6 hours.
The dose dependence of the neuroprotective effect of GBP-L was established using 25 mg/kg, 50 mg/kg and 75 mg/kg (see FIG. 7) given twice three hours and nine hours after the end of ischemia.

[3] = system: electrically evoked release of Glu; test: electrically evoked [^3H]-Glu release from [^3H]-Gln-loaded hippocampus slices; format: cell-based, rat; details: 540 pulses of 4 ms, 6 Hz, 60 mA, room temperature, 100 μM PDC, added 15 min before second stimulation

Structure (SMILES): NCC1(CC(=O)O)CCCCC1 [GBP, gabapentin, reference compound]
- potassium-evoked release of [^3H]-noradrenaline (in words) [1]: inhibitory effects
- neuroprotective effect / number of surviving neurons (in words) ([2]; 50 mg/kg i.p. immediately prior to ischemia and 6 hours after reperfusion, 14 days, listed as gabapentin): no protective effect whatever
- rate of surviving neurons ([2]; 50 mg/kg i.p. twice, ganglion cell layer neurons, 14 days after ischemia, pure ischemia 17.5%): 17.5%

Structure (SMILES): O=C1CC2(CCCCC2)CN1 [GBP-L, 8-azaspiro[5,4]decan-9-one]
- electrically evoked release of Glu (in words) [3]: seems not to be influenced
- electrically evoked release of Glu (in words) ([3]; listed as gabapentin lactam): not influenced; also recorded: unaffected
- retinal gangliocytes survived compared with the respective control eye ([2]; 50 mg/kg i.p. at start of one-hour intraocular pressure increase and again 6 hours after, 14 days, NaCl group 17.4%): 35%
- mortality in the 14 days after the test ([2]; 50 mg/kg i.p. twice, 10 rats): no animal died
- time-effect relationship: neuroprotective action maintained after recirculation ([2]; 75 mg/kg given twice prior to or after the end of ischemia, interval 6 hours, another strain of rats): maintained for more than three hours after recirculation
- slope of regression line of dose-effect relationship ([2]; 25, 50 and 75 mg/kg given twice, three and nine hours after the end of ischemia): 0.41
